Tests used:
Details in all cases: 72 h
[1] = test system: myeloid leukemia patient primary cells Pat.13; test: cell viability (% survival relative to DMSO control); higher = less cytotoxic
Procedure, shortened: (§1)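 Thawed mononuclear cells from AML or CML patients were purified on Ficoll and cultured for 72 h in RPMI 1640 with 10% FBS, at 10,000 cells/well, on 384-well plates carrying 70 pre-printed compounds at 1–10,000 nM in five tenfold steps, in duplicate. Viability came from CellTiter-Glo, normalised against DMSO and against 10 μM proteasome inhibitor. Any area under the curve given was derived from log-logistic curve fits in the drc and PharmacoGx R packages, and these fits had four parameters.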

[2] = test system: myeloid leukemia patient primary cells Pat.12; test: as above
Procedure, shortened: as §1

[3] = test system: myeloid leukemia patient primary cells Pat.15; test: as above
Procedure, shortened: as §1

[4] = test system: myeloid leukemia patient primary cells Pat.2; test: as above
Procedure, shortened: as §1

[5] = test system: myeloid leukemia patient primary cells Pat.10; test: as above
Procedure, shortened: as §1

[6] = test system: myeloid leukemia patient primary cells Pat.3; test: as above
Procedure, shortened: as §1

[7] = test system: MV4-11; test: cell viability (% survival relative to DMSO control, bortezomib = 0%); higher = less cytotoxic
Procedure, shortened: (§2)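 Fifteen myeloid leukaemia cell lines (10 AML, 5 CML) were seeded at a density titrated to the linear growth range. They went into 384-well plates with compounds pre-printed at 1, 10, 100, 1000 or 10000 nM in duplicate. After 72 h at 37 °C with 5% CO2, viability was read by CellTiter-Glo luminescence. Values are percent survival, with vehicle set to 100% and a 10 µM positive control to 0%, averaged over the duplicates.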

[8] = test system: THP-1; test: as above
Procedure, shortened: as §2

[9] = test system: MOLM-13; test: as above
Procedure, shortened: as §2

[10] = test system: KG-1; test: as above
Procedure, shortened: as §2

[11] = test system: myeloid leukemia patient primary cells Pat.13; test: area under dose-response curve (viability, 1 nM-10 uM) (fraction (0-1)); higher = more sensitive
Procedure, shortened: as §1

[12] = test system: myeloid leukemia patient primary cells Pat.9; test: as above
Procedure, shortened: as §1

[13] = test system: myeloid leukemia patient primary cells Pat.11; test: as above
Procedure, shortened: as §1

[14] = test system: myeloid leukemia patient primary cells Pat.1; test: as above
Procedure, shortened: as §1

[15] = test system: myeloid leukemia patient primary cells Pat.14; test: as above
Procedure, shortened: as §1

[16] = test system: myeloid leukemia patient primary cells Pat.8; test: as above
Procedure, shortened: as §1

[17] = test system: myeloid leukemia patient primary cells Pat.4; test: as above
Procedure, shortened: as §1

[18] = test system: myeloid leukemia patient primary cells Pat.7; test: as above
Procedure, shortened: as §1

[19] = test system: myeloid leukemia patient primary cells Pat.12; test: as above
Procedure, shortened: as §1

[20] = test system: myeloid leukemia patient primary cells Pat.5; test: as above
Procedure, shortened: as §1

[21] = test system: myeloid leukemia patient primary cells Pat.15; test: as above
Procedure, shortened: as §1

[22] = test system: myeloid leukemia patient primary cells Pat.2; test: as above
Procedure, shortened: as §1

[23] = test system: myeloid leukemia patient primary cells Pat.6; test: as above
Procedure, shortened: as §1

[24] = test system: myeloid leukemia patient primary cells Pat.10; test: as above
Procedure, shortened: as §1

[25] = test system: myeloid leukemia patient primary cells Pat.3; test: as above
Procedure, shortened: as §1

O=C(O)C1=CC(=C(c2ccc(O)c(C(=O)O)c2)c2ccc(O)c(C(=O)O)c2)C=CC1=O [Aurintricarboxylic acid]
cell viability [%]
Details | [1] | [2] | [3] | [4] | [5] | [6] | [7] | [8] | [9] | [10]
1 nM | 89.1 | 96.5 | 96.4 | 98 | 98.4 | > 100 | 103 | 105 | 91.3 | 104
10 nM | 91.4 | 97.4 | > 100 | 99.7 | 90.3 | > 100 | 100 | 101 | 101 | 94.5
100 nM | 94.1 | 99.8 | 89.3 | 97.8 | 91.9 | 99.7 | 86.3 | 109 | 107 | 99.9
1000 nM | > 100 | > 100 | 86.6 | > 100 | > 100 | 91.7 | 97 | 97.5 | 82.8 | 89.6
10000 nM | 93.4 | 99.6 | 87.3 | 98.8 | > 100 | > 100 | 71.9 | 99.4 | 30.9 | 78.9

Details | area under dose-response curve
[11] | < 0.0301
[12] | < 0.0301
[13] | < 0.0301
[14] | < 0.0301
[15] | < 0.0301
[16] | < 0.0301
[17] | < 0.0301
[18] | < 0.0301
[19] | < 0.0301
[20] | < 0.0301
[21] | < 0.0301
[22] | < 0.0301
[23] | < 0.0301
[24] | < 0.0301
[25] | 0.0466

COC(=O)[C@]12CCC(C)(C)C[C@H]1[C@H]1C(=O)C=C3[C@@]4(C)C=C(C#N)C(=O)C(C)(C)[C@@H]4CC[C@@]3(C)[C@]1(C)CC2 [Bardoxolone methyl]
cell viability [%]
Details | [1] | [2] | [3] | [4] | [5] | [6] | [7] | [8] | [9] | [10]
1 nM | 86.5 | 97.3 | 95.2 | > 100 | 82.4 | 83.7 | 113 | 95.2 | 107 | 96.6
10 nM | 80.8 | 92.7 | 79.4 | 93.5 | 56 | 74.8 | 111 | 104 | 81.7 | 101
100 nM | 57.3 | 77.3 | 21.8 | 78.5 | 11.8 | 10.9 | 112 | 108 | 118 | 117
1000 nM | 4.17 | 95.8 | 69 | 34.7 | 2.87 | 0.308 | 94.3 | 81.6 | 91.9 | 53.5
10000 nM | 31.2 | 52.6 | 0.4 | 77.6 | 91.9 | < 0 | 96.9 | 56.3 | 87.5 | 1.37

Details | area under dose-response curve
[11] | 0.397
[12] | 0.813
[13] | 0.111
[14] | 0.183
[15] | 0.433
[16] | 0.328
[17] | 0.158
[18] | 0.705
[19] | 0.0322
[20] | 0.699
[21] | 0.207
[22] | 0.28
[23] | 0.345
[24] | 0.589
[25] | 0.618

O=C1O/C(=C/Br)CCC1c1cccc2ccccc12 (stereo not given) [Bromoenol Lactone]
cell viability [%]
Details | [1] | [2] | [3] | [4] | [5] | [6] | [7] | [8] | [9] | [10]
1 nM | 80.2 | 100 | 89.3 | 96.5 | 63.6 | 89.5 | 99 | 97.3 | 96.5 | 97.7
10 nM | 89.3 | > 100 | 91.6 | > 100 | 47.6 | 82.1 | 106 | 97.6 | 94 | 97.7
100 nM | 89.3 | 92.4 | 96.4 | 97.2 | 46.5 | 62.3 | 105 | 92.3 | 112 | 101
1000 nM | 82.2 | 90.9 | 89 | 93.6 | 10.6 | 1.83 | 92.4 | 81.4 | 91.5 | 89.8
10000 nM | 28.1 | 33.9 | 3.92 | 29.4 | < 0 | < 0 | 45.8 | 44.7 | 44.1 | 56.6

Details | area under dose-response curve
[11] | 0.0877
[12] | 0.651
[13] | 0.0656
[14] | 0.135
[15] | 0.324
[16] | 0.0529
[17] | 0.213
[18] | 0.287
[19] | 0.084
[20] | 0.828
[21] | 0.132
[22] | 0.0768
[23] | 0.0918
[24] | 0.515
[25] | 0.447
